# Measurements reported in US20130338061A1, “Salts and Polymorphs of Sulfamide NS3 Inhibitors” (priority 2010, published 2013).
# Key:
# [1] = biological target: HCV NS3-4A serine protease (full-length NS3-4A protein, genotype 1a, strain HCV-1) (Hepatitis C virus genotype 1a, UniProt P26664); assay: HCV NS3-4A protease assay; assay type: biochemical; conditions: fluorogenic peptide substrate
# Protocol: The inhibitory activity of Compound X against HCV NS3-4A serine protease is determined in a homogenous assay using the full-length NS3-4A protein (genotype 1a, strain HCV-1) and a commercially available internally-quenched fluorogenic peptide substrate as described by Taliani, M., et al. 1996 Anal. Biochem. 240:60-67, which is incorporated by reference in its entirety.
# [2] = test system: subgenomic genotype 1b HCV replicon cell line (Huh-Luc/neo-ET); assay: Luciferase-based HCV replicon assay; assay type: cell-based; conditions: Hepatitis C virus; Huh-Luc/neo-ET replicon cells, 48-h treatment, 10% FBS; read-out: IC50 in replicon assay (luciferase activity reduced by 50%)
# Protocol: The antiviral activity and cytotoxicity of Compound X is determined using a subgenomic genotype 1b HCV replicon cell line (Huh-Luc/neo-ET) containing a luciferase reporter gene, the expression of which is under the control of HCV RNA replication and translation. Briefly, 5,000 replicon cells are seeded in each well of 96-well tissue culture plates and are allowed to attach in complete culture media without G418 overnight. On the next day, the culture media are replaced with media containing serially diluted Compound X in the presence of 10% FBS and 0.5% DMSO. After a 48-h treatment with the compound, the remaining luciferase activities in the cells are determined using BriteLite reagent (Perkin Elmer, Wellesley, Mass.) with a LMaxII plate reader (Molecular Probe, Invitrogen). Each data point represents the average of four replicates in cell culture. IC50 is the concentration of the compound at which the luciferase activity in the replicon cells is reduced by 50%. The cytotoxicity of the compound is evaluated using an MTS-based cell viability assay.
# HCV NS3-4A serine protease (full-length NS3-4A protein, genotype 1a, strain HCV-1), sequence (P26664 1658-1711): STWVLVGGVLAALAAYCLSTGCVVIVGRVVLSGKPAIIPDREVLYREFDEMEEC
# HCV NS3-4A serine protease (full-length NS3-4A protein, genotype 1a, strain HCV-1), sequence (P26664 1027-1657): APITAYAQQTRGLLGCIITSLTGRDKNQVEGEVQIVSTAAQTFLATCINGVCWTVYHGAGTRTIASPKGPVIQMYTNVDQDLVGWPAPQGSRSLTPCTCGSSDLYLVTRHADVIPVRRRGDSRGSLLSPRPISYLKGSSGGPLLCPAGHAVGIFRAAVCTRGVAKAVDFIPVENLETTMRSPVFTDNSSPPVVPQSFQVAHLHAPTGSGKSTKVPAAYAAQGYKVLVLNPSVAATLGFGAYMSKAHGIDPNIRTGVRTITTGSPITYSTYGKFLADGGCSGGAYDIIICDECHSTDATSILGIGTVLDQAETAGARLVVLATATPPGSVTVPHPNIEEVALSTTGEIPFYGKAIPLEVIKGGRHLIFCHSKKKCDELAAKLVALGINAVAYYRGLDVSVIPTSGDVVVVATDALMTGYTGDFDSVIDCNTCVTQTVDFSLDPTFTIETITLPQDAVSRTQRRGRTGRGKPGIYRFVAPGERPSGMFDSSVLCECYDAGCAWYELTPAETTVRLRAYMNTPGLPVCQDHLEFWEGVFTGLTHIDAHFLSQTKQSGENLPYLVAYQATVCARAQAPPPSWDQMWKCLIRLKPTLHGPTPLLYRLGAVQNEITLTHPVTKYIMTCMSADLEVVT
structure (smiles),measurement,setting,value
"CC[C@@H]1C[C@]1(NC(=O)[C@@H]1C[C@@]2(CN1C(=O)[C@@H](NC(=O)[C@@H](NC(=O)[C@@H]1CCCCN1C(C)C)C1CCCCC1)C(C)(C)C)C(C)(C)C21CCC1)C(=O)NS(=O)(=O)N1CCCC1 [Compound X, (5R,8S)-7-[(2S)-2-{[(2S)-2-cyclohexyl-2-({[(2S)-1-isopropylpiperidin-2-yl]carbonyl}amino)acetyl]amino}-3,3-dimethylbutanoyl]-N-{(1R,2R)-2-ethyl-1-[(pyrrolidin-1-ylsulfonyl)carbamoyl]cyclopropyl}-10,10-dimethyl-7-azadispiro[3.0.4.1]decane-8-carboxamide]",IC50,[1],4.5 nM
same,IC50,[2],< 100 nM
